Assay results reported in paper PMC4147378 (Bioorganic & medicinal chemistry, 2014).
“Also recorded” adds a separate entry of the source.

How the values were obtained:
FXR [1] = biological target: T1, FXR (Homo sapiens, UniProt Q96RI1); experiment: GeneBLAzer FXR cell-based antagonistic; settings: data not shown
T1 sequence (Q96RI1 262-486 limits assumed): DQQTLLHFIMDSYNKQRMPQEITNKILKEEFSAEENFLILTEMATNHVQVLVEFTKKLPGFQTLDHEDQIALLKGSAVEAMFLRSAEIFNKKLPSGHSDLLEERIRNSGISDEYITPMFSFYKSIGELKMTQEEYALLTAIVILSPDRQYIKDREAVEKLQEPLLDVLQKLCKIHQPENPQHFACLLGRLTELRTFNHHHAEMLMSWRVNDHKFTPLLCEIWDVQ

GST-hFXR-LBD = biological target: T2, GST-hFXR-LBD (Homo sapiens, UniProt Q96RI1); experiment: FXR TR-FRET binding assay; settings: Table 3; ratio fits the TR-FRET binding IC50
T2 sequence (Q96RI1 262-486 limits assumed): T1 sequence (Q96RI1 262-486 limits assumed)

FXR [2] = biological target: T1, FXR; experiment: GeneBLAzer FXR cell-based agonistic; settings: compound alone, without GW4064; data not shown
[3] = system: GeneBLAzer FXR-UAS-bla HEK 293T cells; experiment: Cytotoxicity assay in GeneBLAzer FXR cells; format: cell-based, human

COc1cccc(Cn2cc(C(=O)N(C)c3ccc(C)c(S(=O)(=O)N4CCOCC4)c3)c(-c3cccc(OC)c3)n2)c1 [Compound 8c, 1-(3-Methoxybenzyl)-3-(3-methoxyphenyl)-N-methyl-N-(4-methyl-3-(morpholinosulfonyl)phenyl)-1H-pyrazole-4-carboxamide]
activity against FXR at 1 µM (FXR [1]): essentially inactive

COc1cccc(Cn2cc(C(=O)N(C)c3ccc(C)c(S(=O)(=O)N4CCOCC4)c3)c(C(C)C)n2)c1 [Compound 8b, 3-Isopropyl-1-(3-methoxybenzyl)-N-methyl-N-(4-methyl-3-(morpholinosulfonyl)phenyl)-1H-pyrazole-4-carboxamide]
activity against FXR at 1 µM (FXR [1]): essentially inactive

Cc1ccc(-c2nn(CC3CC3)cc2C(=O)Nc2ccc(C)c(S(=O)(=O)N3CCOCC3)c2)cc1 [Compound 4i, 1-(Cyclopropylmethyl)-N-(4-methyl-3-(morpholinosulfonyl)phenyl)-3-(p-tolyl)-1H-pyrazole-4-carboxamide]
fold decreased activity for FXR as compared to E16 (GST-hFXR-LBD): 2 fold

COc1cccc(Cn2cc(C(=O)Nc3ccc(C)c(S(=O)(=O)N4CCOCC4)c3)c(-c3ccc(C)cc3)n2)c1 [Compound 4j, 1-(3-Methoxybenzyl)-N-(4-methyl-3-(morpholinosulfonyl)phenyl)-3-(p-tolyl)-1H-pyrazole-4-carboxamide]
FXR agonistic activity (FXR [2]): no detectable; also recorded: no FXR agonistic activity; also recorded: does not have any
cytotoxicity [3]: no detectable; also recorded: no cytotoxicity; also recorded: does not have any

Cc1ccc(-c2nn(C(C)C)cc2C(=O)N(C)c2ccc(C)c(S(=O)(=O)N3CCOCC3)c2)cc1 [Compound 8a, 1-Isopropyl-N-methyl-N-(4-methyl-3-(morpholinosulfonyl)phenyl)-3-(p-tolyl)-1H-pyrazole-4-carboxamide]
activity against FXR at 1 µM (FXR [1]): essentially inactive
